{"source": "patent US11072624B2", "about": "“Synthesis of nucleoside 5′-triphosphates and their derivatives” (priority 2010, dated 2021)", "data": [{"target": "T1, Klenow fragment exo(−), Kf- (Escherichia coli, UniProt P00582, D355A/E357A)", "T1 construct": "into DNA by Klenow fragment exo(−), Kf-", "T1 sequence (P00582 324-928 D355A/E357A)": "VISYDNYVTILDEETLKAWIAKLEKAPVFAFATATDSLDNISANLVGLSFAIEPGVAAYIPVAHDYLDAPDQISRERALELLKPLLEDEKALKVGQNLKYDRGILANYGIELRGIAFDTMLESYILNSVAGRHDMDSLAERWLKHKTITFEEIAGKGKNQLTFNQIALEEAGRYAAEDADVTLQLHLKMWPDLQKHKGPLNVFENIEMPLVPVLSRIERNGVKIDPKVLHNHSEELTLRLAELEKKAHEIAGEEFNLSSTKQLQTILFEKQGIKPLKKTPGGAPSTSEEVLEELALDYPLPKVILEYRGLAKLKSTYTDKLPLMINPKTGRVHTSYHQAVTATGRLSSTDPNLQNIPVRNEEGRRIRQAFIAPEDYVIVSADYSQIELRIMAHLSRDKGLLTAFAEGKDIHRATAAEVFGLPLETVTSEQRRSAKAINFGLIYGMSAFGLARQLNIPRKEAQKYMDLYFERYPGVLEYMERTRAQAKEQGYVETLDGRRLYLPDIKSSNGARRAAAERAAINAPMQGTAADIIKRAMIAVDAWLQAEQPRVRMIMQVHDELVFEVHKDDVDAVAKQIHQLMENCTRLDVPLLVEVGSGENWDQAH", "experiment": "Primer extension reaction of chemically synthesized dNTPs into DNA by Klenow polymerase", "type": "biochemical", "conditions": "single test dNTP plus the three other standard dNTPs (lanes 4, 6, 8, 10); 0.1 mM dNTPs, 37° C., 1 h, 19% PAGE", "method": "Primer, P was end labeled using polynucleotide kinase and [γ-^32P] ATP. Polymerization reactions were performed with 3.5 μM primer and 5 μM template and equimolar ratios of all dNTPs (0.1 mM) and incubated with 0.05 […] at 37° C. for 1 h. Reaction was analyzed by 19% polyacrylamide gel electrophoresis. Lane 1: primer, P and all dNTPs but no Kf-; lane 2: P plus template, T and all dNTPs (Epicentre, Inc.) with Kf-; lane 3: P/T and all dNTPs except dATP with Kf-; lane 4: P/T and test dATP, dCTP, dGTP, and TTP with Kf-; lane 5: P/T and all dNTPs except dCTP with Kf-; lane 6: P/T and dATP, test dCTP, dGTP and TTP with Kf-; lane 7: P/T and all dNTPs except dGTP with Kf-; lane 8: P/T and dATP, dCTP, test dGTP and TTP with Kf-; lane 9: P/T and all dNTPs except TTP with Kf-; lane 10: P/T and dATP, dCTP, dGTP and test TTP with Kf-; lane 11: P/T and all test dNTPs with Kf-; lane 12: primer, P.\nFor the polymerase extension reaction, the primer (SEQ ID NO: 1; P: 5′-d-GCGTAATACGACTCACTATAG-3′) was radiolabeled with [γ-^32P] ATP at the 5′-position and incubated with the template (SEQ ID NO: 2; 3′-d-[…]-5′) to allow examination of a test nucleotide (dATP, dCTP, dGTP or TTP), see FIG. 3. The polymerase reaction was conducted in the presence of the Klenow polymerase (0.05 U/μL). […] More convincingly, in a reaction containing each of the test triphosphates (lane 11), full-length product (SEQ ID NO: 3) similar to the standard polymerization reaction (lane 2) was observed.", "values": [{"smiles": "Nc1ccn([C@H]2C[C@H](O)[C@@H](COP(=O)(O)OP(=O)(O)OP(=O)(O)O)O2)c(=O)n1", "note": "[dCTP]", "primer extension to the expected full-length (test dNTP as substrate for the Klenow polymerase)": "efficiently extended the primer"}, {"smiles": "Cc1cn([C@H]2C[C@H](O)[C@@H](COP(=O)(O)OP(=O)(O)OP(=O)(O)O)O2)c(=O)[nH]c1=O", "note": "[TTP]", "primer extension to the expected full-length (test dNTP as substrate for the Klenow polymerase)": "efficiently extended the primer"}, {"smiles": "Nc1nc2c(ncn2[C@H]2C[C@H](O)[C@@H](COP(=O)(O)OP(=O)(O)OP(=O)(O)O)O2)c(=O)[nH]1", "note": "[dGTP]", "primer extension to the expected full-length (test dNTP as substrate for the Klenow polymerase)": "efficiently extended the primer"}, {"smiles": "Nc1ncnc2c1ncn2[C@H]1C[C@H](O)[C@@H](COP(=O)(O)OP(=O)(O)OP(=O)(O)O)O1", "note": "[dATP]", "primer extension to the expected full-length (test dNTP as substrate for the Klenow polymerase)": "efficiently extended the primer"}]}]}
